Assay results: US20210323977A1, “PYRROLIDINYL AMIDE COMPOUNDS FOR THE TREATMENT OF AUTOIMMUNE DISEASE” (Hoffmann-La Roche Inc., priority 2018, published 2021)

These compounds were tested against T1, human TLR8 (Homo sapiens, UniProt Q9NR97) (assay: HEK293-Blue-hTLR-8 cells assay). Conditions: HEK293-Blue-hTLR8 cells, SEAP reporter, R848 stimulation, 20 hrs.
T1 sequence (Q9NR97 27-1041): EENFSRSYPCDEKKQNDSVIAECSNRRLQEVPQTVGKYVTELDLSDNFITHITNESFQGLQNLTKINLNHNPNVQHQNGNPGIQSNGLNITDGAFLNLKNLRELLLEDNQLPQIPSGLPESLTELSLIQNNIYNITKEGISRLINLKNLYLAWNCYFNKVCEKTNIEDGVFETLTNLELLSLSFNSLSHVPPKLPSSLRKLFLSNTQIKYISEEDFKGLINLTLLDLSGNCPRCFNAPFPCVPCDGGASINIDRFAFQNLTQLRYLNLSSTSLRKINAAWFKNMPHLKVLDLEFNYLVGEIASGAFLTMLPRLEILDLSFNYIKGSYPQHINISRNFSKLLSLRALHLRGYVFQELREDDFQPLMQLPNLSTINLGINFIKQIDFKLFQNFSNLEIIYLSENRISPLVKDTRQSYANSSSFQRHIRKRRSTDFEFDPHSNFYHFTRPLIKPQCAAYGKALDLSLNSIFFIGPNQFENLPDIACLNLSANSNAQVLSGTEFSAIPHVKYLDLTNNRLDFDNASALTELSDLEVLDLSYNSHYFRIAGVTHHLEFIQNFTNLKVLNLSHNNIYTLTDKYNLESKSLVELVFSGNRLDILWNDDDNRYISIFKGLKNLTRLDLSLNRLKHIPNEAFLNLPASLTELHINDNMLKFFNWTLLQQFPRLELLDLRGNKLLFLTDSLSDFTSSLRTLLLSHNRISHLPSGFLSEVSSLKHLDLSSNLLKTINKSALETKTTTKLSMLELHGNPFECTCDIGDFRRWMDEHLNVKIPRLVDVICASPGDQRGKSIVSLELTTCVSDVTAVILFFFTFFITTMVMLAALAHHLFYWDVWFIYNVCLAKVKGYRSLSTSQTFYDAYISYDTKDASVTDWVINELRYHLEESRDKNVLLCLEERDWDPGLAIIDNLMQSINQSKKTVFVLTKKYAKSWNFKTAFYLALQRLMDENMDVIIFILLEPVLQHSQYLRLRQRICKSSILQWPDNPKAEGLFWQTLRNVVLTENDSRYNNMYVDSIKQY
Type: cell-based
Excerpt: HEK293-Blue-hTLR-8 Cells Assay:
A stable HEK293-Blue-hTLR-8 cell line was purchased from InvivoGen (Cat. #: hkb-htlr8, San Diego, Calif., USA). These cells were originally designed for studying the stimulation of human TLR8 by monitoring the activation of NF-κB. A SEAP (secreted embryonic alkaline phosphatase) reporter gene was placed under the control of the IFN-β minimal promoter fused to five NF-κB and AP-1-binding sites. The SEAP was induced by activating NF-κB and AP-1 via stimulating HEK-Blue hTLR8 cells with TLR8 ligands. Therefore the reporter expression was declined by TLR8 antagonist under the stimulation of a ligand, such as R848, for incubation of 20 hrs. The cell culture supernatant SEAP reporter activity was determined using QUANTI-Blue™ kit (Cat. #: rep-qb1, Invivogen, San Diego, Ca, USA) at a wavelength of 640 nm, a detection medium that turns purple or blue in the presence of alkaline phosphatase.
HEK293-Blue-hTLR8 cells were incubated at a density of 250,000-450,000 cells/mL in a volume of 170 μL in a 96-well plate in Dulbecco's Modified Eagle's medium (DMEM) containing 4.5 g/L glucose, 50 U/mL penicillin, […], […], 2 mM L-glutamine, 10% (v/v) heat-inactivated fetal bovine serum with addition of 20 μL test compound in a serial dilution in the presence of final DMSO at 1% and 10 sL of 60 uM R848 in above DMEM, perform incubation under 37° C. in a CO2 incubator for 20 hrs. Then 20 μL of the supernatant from each well was incubated with 180 sL Quanti-blue substrate solution at 37° C. for 2 hrs and the absorbance was read at 620˜655 nm using a spectrophotometer. The signalling pathway that TLR8 activation leads to downstream NF-κB activation has been widely accepted, and therefore similar reporter assay was modified for evaluating TLR8 antagonist.

Compound	IC50
N#Cc1ccc(N2C[C@@H](C(F)(F)F)[C@H](C(=O)N[C@H]3CNC[C@H]3F)C2)c2cccnc12 [Example 47, Trans-1-(8-cyano-5-quinolyl)-N-[(3S,4R)-4-fluoropyrrolidin-3-yl]-4-(trifluoromethyl)pyrrolidine-3-carboxamide]	404 nM
C[C@H]1CN(c2ccc(Cl)c3ncccc23)C[C@@H]1C(=O)NC1CCN(C)CC1 [Example 50, (3R,4R)-1-(8-chloro-5-quinolyl)-4-methyl-N-(1-methyl-4-piperidyl)pyrrolidine-3-carboxamide]	147 nM
CN1CCCC(CNC(=O)C2CN(c3ccc(C#N)c4ncccc34)CC23CC3)C1 (centres unmarked) [Example 51, 5-(8-Cyano-5-quinolyl)-N-[(1-methyl-3-piperidyl)methyl]-5-azaspiro[2.4]heptane-7-carboxamide]	398 nM
C[C@@H]1CN(c2ccc(C#N)c3ncccc23)C[C@H]1C(=O)N[C@H]1CNC[C@H]1F [Example 56, Trans-1-(8-cyano-5-quinolyl)-N-[(3S,4R)-4-fluoropyrrolidin-3-yl]-4-methyl-pyrrolidine-3-carboxamide]	373 nM
C[C@H]1CN(c2ccc(C#N)c3nccnc23)C[C@@H]1C(=O)NC1CCN(C2CCNCC2)CC1 [Example 60, (3R,4R)-1-(8-cyanoquinoxalin-5-yl)-4-methyl-N-[1-(4-piperidyl)-4-piperidyl]pyrrolidine-3-carboxamide]	48 nM
